Results: paper PMC11340618 (iScience, 2024)

System: intracellular Mtb ΔptpA mutant in THP-1 cells
Type: cell-based, Mycobacterium tuberculosis

O=C(NCc1ccccn1)Nc1cc(N2CC(CCc3ccccc3)CC2=O)ccn1 (stereo not shown) [P-4423632]
dose-dependent activity against intracellular Mtb: not against a ΔptpA mutant
